Where a name gives a salt, the structure may show the parent alone.
Columns and labels:
H9C2 cardiomyocytes [1] = format: cell-based, rat
H9C2 cardiomyocytes [2] = details: Dox only, 24 h, CCK-8

## N[C@@H](CS)C(=O)O [Cys, cysteine]
H9C2 cardiomyocytes [1]
  protection of H9C2 viability against Dox (control studies): no protective effect

## COc1cccc2c1C(=O)c1c(O)c3c(c(O)c1C2=O)C[C@@](O)(C(=O)CO)C[C@@H]3O[C@H]1C[C@H](N)[C@H](O)[C@H](C)O1 [Dox, Doxorubicin hydrochloride]
H9C2 cardiomyocytes [2]
  concentration inducing cytotoxicity in H9C2 cardiomyocytes: ≥ 2500 nM

## C1COCCN1.COc1ccc(P(=S)(S)N2CCOCC2)cc1 (stereo not drawn) [GYY4137]
H9C2 cardiomyocytes [1]
  protection of H9C2 viability against Dox (control studies): no effect on viability

Source: article PMC6225339 (Journal of the American Chemical Society, 2018)
